This experiment has as its target T1, 5-HT2A receptor (Homo sapiens, UniProt P28223).
T1 construct: host or cells: HEK293
The experiment is described as follows: FLIPR Ca2+ flux functional assay, 5-HT2A. The format is cell-based. The conditions noted are these: agonist activity, Ca2+ flux, HEK293 cells. In general terms: A change in cytosolic calcium serves as a functional read-out for many receptors and channels.

SMILES strings stand for the structures.

T1 sequence (P28223 whole entry): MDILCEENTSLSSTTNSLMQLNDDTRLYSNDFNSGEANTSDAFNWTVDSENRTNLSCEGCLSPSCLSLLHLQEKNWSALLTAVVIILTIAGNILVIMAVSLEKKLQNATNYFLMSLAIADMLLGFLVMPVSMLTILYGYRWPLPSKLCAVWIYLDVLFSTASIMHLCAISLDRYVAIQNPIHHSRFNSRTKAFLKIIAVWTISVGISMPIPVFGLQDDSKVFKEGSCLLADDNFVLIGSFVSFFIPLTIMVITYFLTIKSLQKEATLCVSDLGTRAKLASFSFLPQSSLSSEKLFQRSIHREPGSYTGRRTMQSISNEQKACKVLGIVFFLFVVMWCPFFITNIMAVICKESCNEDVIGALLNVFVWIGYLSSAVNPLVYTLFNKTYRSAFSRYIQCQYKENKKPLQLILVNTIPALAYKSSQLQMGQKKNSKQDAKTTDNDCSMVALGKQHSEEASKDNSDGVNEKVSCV

A word on the Emax: it is the greatest response seen or fitted, relative to the assay's reference. The compound `CCN(C)CCc1c[nH]c2ccc(OC)c(C)c12` [Example P-37, N-ethyl-2-(5-methoxy-4-methyl-1H-indol-3-yl)-N-methylethan-1-amine] came in with an Emax of 80.3%.

`CCN(C)CCc1c[nH]c2c(C)cc(OC)cc12` [Example P-51, N-ethyl-2-(5-methoxy-7-methyl-1H-indol-3-yl)-N-methylethan-1-amine]: the Emax stood at 69.2%.

Values taken from patent publication US20250101038A1, “COMPOUNDS” (priority 2021, published 2025).
